The assay addresses T1, SIRT1 (Homo sapiens, UniProt Q96EB6).
T1 sequence (Q96EB6 1-747): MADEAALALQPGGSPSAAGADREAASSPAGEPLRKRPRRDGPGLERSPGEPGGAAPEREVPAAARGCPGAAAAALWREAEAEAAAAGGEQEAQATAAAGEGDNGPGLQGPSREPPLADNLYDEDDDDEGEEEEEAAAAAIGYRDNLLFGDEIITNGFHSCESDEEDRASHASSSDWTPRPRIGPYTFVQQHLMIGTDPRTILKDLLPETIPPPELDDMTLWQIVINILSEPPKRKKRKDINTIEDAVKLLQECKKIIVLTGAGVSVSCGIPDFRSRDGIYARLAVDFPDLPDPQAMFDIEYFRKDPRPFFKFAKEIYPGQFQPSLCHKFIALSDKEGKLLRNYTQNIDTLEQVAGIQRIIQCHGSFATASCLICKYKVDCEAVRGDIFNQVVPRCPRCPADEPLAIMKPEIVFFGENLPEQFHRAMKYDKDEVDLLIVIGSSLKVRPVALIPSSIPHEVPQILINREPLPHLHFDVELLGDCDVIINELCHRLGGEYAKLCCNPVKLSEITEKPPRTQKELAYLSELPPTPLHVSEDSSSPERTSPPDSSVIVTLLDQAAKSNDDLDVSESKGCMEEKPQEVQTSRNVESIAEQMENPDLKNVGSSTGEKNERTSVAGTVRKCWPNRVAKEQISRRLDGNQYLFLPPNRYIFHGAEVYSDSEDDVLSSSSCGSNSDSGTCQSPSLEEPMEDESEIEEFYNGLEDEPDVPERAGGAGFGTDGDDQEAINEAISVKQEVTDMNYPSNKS
In words: Mass spectrometry based SIRT1 deacetylase activation assay. The format is biochemical. The note with it: for EC1.5 μM: 0.5 μM peptide substrate, 120 μM βNAD+, 10 nM SIRT1, 25 min, 25° C.; for Emax: 25 min, mass spectrometry assay, read-out: % Fold Act. (percent maximum fold activation). The text has this:
A mass spectrometry based assay was used to identify modulators of SIRT1 activity. The mass spectrometry based assay utilizes a peptide having 20 amino acid residues as follows: Ac-EE-K(biotin)-GQSTSSHSK(Ac)NleSTEG-K(5TMR)-EE-NH2 (SEQ ID NO: 1) wherein K(Ac) is an acetylated lysine residue and Nle is a norleucine. The peptide is labeled with the fluorophore 5TMR (excitation 540 nm/emission 580 nm) at the C-terminus. The sequence of the peptide substrate is based on p53 with several modifications. In addition, the methionine residue naturally present in the sequence was replaced with the norleucine because the methionine may be susceptible to oxidation during synthesis and purification.
The mass spectrometry assay is conducted as follows: 0.5 μM peptide substrate and 120 μM βNAD^+ is incubated with 10 nM SIRT1 for 25 minutes at 25° C. in a reaction buffer (50 mM Tris-acetate pH 8, 137 mM NaCl, 2.7 mM KCl, 1 mM MgCl2, 5 mM DTT, 0.05% BSA). Test compounds may be added to the reaction as described above. […] After the 25 minute incubation with SIRT1, 10 μL of 10% formic acid is added to stop the reaction. Reactions are sealed and frozen for later mass spec analysis. Determination of the mass of the substrate peptide allows for precise determination of the degree of acetylation (i.e. starting material) as compared to deacetylated peptide (product).
A control for inhibition of sirtuin activity is conducted by adding 1 μL of 500 mM nicotinamide as a negative control at the start of the reaction (e.g., permits determination of maximum sirtuin inhibition). A control for activation of sirtuin activity is conducted using 10 nM of sirtuin protein, with 1 μL of DMSO in place of compound, to determine the amount of deacetylation of the substrate at a given timepoint within the linear range of the assay. This timepoint is the same as that used for test compounds and, within the linear range, the endpoint represents a change in velocity.
For the above assay, SIRT1 protein was expressed and purified as follows. […] The protein was expressed by induction with 1 mM IPTG as an N-terminal His-tag fusion protein at 18° C. overnight and harvested at 30,000×g. Cells were lysed with lysozyme in lysis buffer (50 mM Tris-HCl, 2 mM Tris[2-carboxyethyl]phosphine (TCEP), 10 μM ZnCl2, 200 mM NaCl) and further treated with sonication for 10 min for complete lysis. The protein was purified over a Ni-NTA column (Amersham) and fractions containing pure protein were pooled, concentrated and run over a sizing column (Sephadex S200 26/60 global). The peak containing soluble protein was collected and run on an Ion-exchange column (MonoQ). Gradient elution (200 mM-500 mM NaCl) yielded pure protein. This protein was concentrated and dialyzed against dialysis buffer (20 mM Tris-HCl, 2 mM TCEP) overnight. The protein was aliquoted and frozen at −80° C. until further use.

Data on 36 compounds can be found in patent US8987258B2 (priority 2008, dated 2015).

In the case of `O=C(Nc1cccc2c(=O)cc(-c3ccccc3)oc12)c1cscn1` [Compound 200], the “EC1.5 μM” value is listed as “C (EC1.5>25 μM)” and the Emax is less than 200%.

Consider `O=C(Nc1cccc2c(=O)cc(-c3ccccc3)oc12)c1cnccn1` [Compound 201], for which the “EC1.5 μM” value was “C (EC1.5>25 μM)” and the Emax is less than 200%.

Take `O=C(Nc1cccc2c(=O)cc(-c3cccc(OC(F)(F)F)c3)oc12)c1cscn1` [Compound 202]: the “EC1.5 μM” value is “C (EC1.5>25 μM)” and the Emax was less than 200%.

Take `O=C(Nc1cccc2c(=O)cc(-c3cccc(OC(F)(F)F)c3)oc12)c1cnccn1` [Compound 203]: the “EC1.5 μM” value is “B (EC1.5 1-25 μM)” and the Emax is less than 200%.

`O=C(Nc1cccc2c(=O)cc(-c3cccc(C(F)(F)F)c3)oc12)c1cscn1` [Compound 204, N-(4-oxo-2-(3-(trifluoromethyl)phenyl)-4H-chromen-8-yl)thiazole-4-carboxamide]: the “EC1.5 μM” value was “B (EC1.5 1-25 μM)” and the Emax was less than 200%.

For the compound `O=C(Nc1cccc2c(=O)cc(-c3cccc(C(F)(F)F)c3)oc12)c1cnccn1` [Compound 205], the “EC1.5 μM” value is recorded as “C (EC1.5>25 μM)” and the Emax was less than 200%.

Consider `O=C(Nc1nccs1)c1cccc2c(=O)cc(-c3cccc(C(F)(F)F)c3)oc12` [Compound 206], for which the “EC1.5 μM” value is reported as “C (EC1.5>25 μM)” and the Emax is less than 200%.

Consider `O=C(Nc1ccccn1)c1cccc2c(=O)cc(-c3cccc(C(F)(F)F)c3)oc12` [Compound 207], for which the “EC1.5 μM” value was “C (EC1.5>25 μM)” and the Emax was less than 200%.

Regarding `O=C(Nc1nccs1)c1cccc2c(=O)cc(-c3cccc(N4CCOCC4)c3)oc12` [Compound 208], the “EC1.5 μM” value is “C (EC1.5>25 μM)” and the Emax was less than 200%.

In the case of `O=C(Nc1ccccn1)c1cccc2c(=O)cc(-c3cccc(N4CCOCC4)c3)oc12` [Compound 209], the “EC1.5 μM” value is reported as “C (EC1.5>25 μM)” and the Emax is less than 200%.

As to `O=C(Nc1nccs1)c1cccc2c(=O)cc(-c3cccc(OC(F)(F)F)c3)oc12` [Compound 210], the “EC1.5 μM” value is given as “C (EC1.5>25 μM)” and the Emax was less than 200%.

`O=C(Nc1ccccn1)c1cccc2c(=O)cc(-c3cccc(OC(F)(F)F)c3)oc12` [Compound 211]: the “EC1.5 μM” value is on record as “C (EC1.5>25 μM)” and the Emax was less than 200%.

As to `O=C(Nc1cccc2c(=O)cc(-c3cccc(N4CCOCC4)c3)oc12)c1cscn1` [Compound 212], the “EC1.5 μM” value is recorded as “B (EC1.5 1-25 μM)” and the Emax is more than 200%.

`O=C(Nc1cccc2c(=O)cc(-c3cccc(N4CCOCC4)c3)oc12)c1ccccn1` [Compound 213]: the “EC1.5 μM” value was “C (EC1.5>25 μM)” and the Emax is less than 200%.

As to `O=C(Nc1cccc2c(=O)cc(-c3cccc(N4CCOCC4)c3)oc12)c1cnccn1` [Compound 214], the “EC1.5 μM” value is on record as “B (EC1.5 1-25 μM)” and the Emax was less than 200%.

Turning to `O=C(Nc1cccc2c(=O)cc(-c3cccnc3)oc12)c1cscn1` [Compound 215, N-(4-oxo-2-(pyridin-3-yl)-4H-chromen-8-yl)thiazole-4-carboxamide], the “EC1.5 μM” value is recorded as “C (EC1.5>25 μM)” and the Emax was less than 200%.

Consider `O=C(Nc1cccc2c(=O)cc(-c3cccnc3)oc12)c1ccccn1` [Compound 216], for which the “EC1.5 μM” value was “C (EC1.5>25 μM)” and the Emax was less than 200%.

On to `O=C(Nc1cccc2c(=O)cc(-c3cccnc3)oc12)c1cnccn1` [Compound 217], for which the “EC1.5 μM” value was “C (EC1.5>25 μM)” and the Emax is less than 200%.

For the compound `CS(=O)(=O)c1cccc(-c2cc(=O)c3cccc(NC(=O)c4ccccn4)c3o2)c1` [Compound 218], the “EC1.5 μM” value was “B (EC1.5 1-25 μM)” and the Emax is less than 200%.

Take `CS(=O)(=O)c1cccc(-c2cc(=O)c3cccc(NC(=O)c4cnccn4)c3o2)c1` [Compound 219]: the “EC1.5 μM” value is given as “C (EC1.5>25 μM)” and the Emax is less than 200%.

With `CS(=O)(=O)c1cccc(-c2cc(=O)c3cccc(C(=O)Nc4nccs4)c3o2)c1` [Compound 220], the “EC1.5 μM” value is on record as “C (EC1.5>25 μM)” and the Emax is less than 200%.

Consider `CS(=O)(=O)c1cccc(-c2cc(=O)c3cccc(C(=O)Nc4ccccn4)c3o2)c1` [Compound 221], for which the “EC1.5 μM” value is on record as “C (EC1.5>25 μM)” and the Emax is less than 200%.

For `CS(=O)(=O)c1cccc(-c2cc(=O)c3cccc(NC(=O)c4cscn4)c3o2)c1` [Compound 222], the “EC1.5 μM” value is “C (EC1.5>25 μM)” and the Emax is less than 200%.

As to `Cc1cnc(NC(=O)c2cccc3c(=O)cc(-c4ccc(Br)cc4)oc23)s1` [Compound 223], the Emax was less than 200%.

Regarding `O=C(Nc1cccnc1)c1cccc2c(=O)cc(-c3cccc(C(F)(F)F)c3)oc12` [Compound 224, 4-oxo-N-(pyridin-3-yl)-2-(3-(trifluoromethyl)phenyl)-4H-chromene-8-carboxamide], the “EC1.5 μM” value is listed as “C (EC1.5>25 μM)” and the Emax is less than 200%.

In the case of `O=C(Nc1cccc2c(=O)cc(-c3cccc(C(F)(F)F)c3)oc12)c1ccccn1` [Compound 225], the “EC1.5 μM” value was “C (EC1.5>25 μM)” and the Emax was less than 200%.

With `O=C(Nc1cccc2c(=O)cc(-c3cccc(C(F)(F)F)c3)oc12)c1cccnc1` [Compound 226], the “EC1.5 μM” value is “C (EC1.5>25 μM)” and the Emax is less than 200%.

On to `O=C(Nc1cccc2c(=O)cc(-c3ccccc3C(F)(F)F)oc12)c1cscn1` [Compound 227, N-(4-oxo-2-(2-(trifluoromethyl)phenyl)-4H-chromen-8-yl)thiazole-4-carboxamide], for which the “EC1.5 μM” value was “A (EC1-5<1.0)” and the Emax was more than 200%.

As to `O=C(Nc1cccc2c(=O)cc(-c3ccc(C(F)(F)F)cc3)oc12)c1cscn1` [Compound 228], the “EC1.5 μM” value is listed as “C (EC1.5>25 μM)” and the Emax is less than 200%.

With `O=C(Nc1cccc2c(=O)cc(-c3ccc(N4CCOCC4)cc3)oc12)c1cscn1` [Compound 229], the “EC1.5 μM” value is “C (EC1.5>25 μM)” and the Emax was less than 200%.

In the case of `O=C(Nc1cccc2c(=O)cc(-c3cccc(Br)c3)oc12)c1cscn1` [Compound 230], the Emax is less than 200%.

With `O=C(Nc1cccc2c(=O)cc(-c3ccccc3Br)oc12)c1cscn1` [Compound 231], the Emax is more than 200%.

Turning to `O=C(Nc1cccc2c(=O)cc(-c3ccc(Br)cc3)oc12)c1cscn1` [Compound 232], the Emax is less than 200%.

In the case of `O=C(Nc1cccc2c(=O)cc(-c3ccc(OC(F)(F)F)cc3)oc12)c1cnccn1` [Compound 233], the “EC1.5 μM” value was “C (EC1.5>25 μM)” and the Emax is less than 200%.

`O=C(Nc1cccc2c(=O)cc(-c3ccccc3OC(F)(F)F)oc12)c1cnccn1` [Compound 234]: the “EC1.5 μM” value is “A (EC1-5<1.0)” and the Emax is more than 200%.

Consider `Cc1cnc(NC(=O)c2cccc3c(=O)cc(-c4cccc(C(F)(F)F)c4)oc23)s1` [Compound 235], for which the “EC1.5 μM” value is “C (EC1.5>25 μM)” and the Emax is less than 200%.
